Measured values from patent US20060188938A1, “Compounds for inhibiting beta-amyloid production and methods of identifying the compounds” (priority 2005, published 2006).

Columns and labels:
[1] = system: β-amyloid production by 7W WT APP751 CHO cells; assay: Screening of NF-kB activation inhibitors, Aβ1-40 and Aβ1-42 ELISA (Example 3); type: cell-based, Chinese hamster; settings: 24 hours (FIG. 6)
Description: Most of the compounds screened can be obtained as Calbiochem products from EMD Biosciences, Inc., La Jolla, Calif. R—and S-Niguldipine are available e.g., from Tocris Cookson Inc., Ellisville, Mo. CAPE and Artemisinin are available, e.g., as a Sigma product from Sigma-Aldrich Corp., St. Louis, Mo.
Each compound was dissolved in DMSO. 7W WT APP751 CHO cells overexpressing APP751 were plated into 96-well culture plates in 200 μL of culture medium. Each compound from the library was added to confluent cells to a final concentration of 500 nM, 1 μM, 5 μM, 10 μM and/or 30 μM. After 24 hours of treatment, culture medium was collected and dissolved 10-fold and 2-fold for measuring the level of Aβ1-40 and Aβ1-42, respectively. Aβ1-40 and Aβ1-42 were determined using commercially available ELISAs (Biosource, CA), following the recommendations of the manufacturer.

[2] = system: β-amyloid production by 7W WT APP751 CHO cells; assay: Screening of dihydropyridine compounds (Maybridge), Aβ1-40 and Aβ1-42 ELISA (Example 2); type: cell-based, Chinese hamster; settings: 30 μM, 24 hours (FIGS. 5A-B)
Description: Dihydropyridine compounds were obtained from Maybridge (England). Each compound was dissolved in DMSO. 7W WT APP751 CHO cells overexpressing APP751 were plated into 96-well culture plates in 200 μL of culture medium. Each compound from the library was added to confluent cells to a final concentration of 30 μM. After 24 hours of treatment, culture medium was collected and dissolved 10-fold and 2-fold for measuring the level of Aβ1-40 and Aβ1-42, respectively. Aβ1-40 and Aβ1-42 were determined using commercially available ELISAs (Biosource, CA), following the recommendations of the manufacturer.

SMILES | concentration of Aβ1-40 compared to controls [2] | concentration of Aβ1-42 compared to controls [2] | concentration of total β-amyloid (Aβ1-40+Aβ1-42) compared to controls [2] | also measured
Nc1ccc2ncnc(NCCc3ccc(Oc4ccccc4)cc3)c2c1 [6-amino-4-(4-phenoxyphenylethylamino)quinazoline] | – | – | – | concentration of Aβ1-40 compared to controls ([1]; 500 nM): significantly decreased; concentration of Aβ1-42 compared to controls ([1]; 500 nM): significantly decreased; concentration of total β-amyloid compared to controls ([1]; 500 nM): significantly decreased; concentration of Aβ1-40 compared to controls ([1]; 5 μM): significantly decreased; concentration of Aβ1-42 compared to controls ([1]; 5 μM): significantly decreased; concentration of total β-amyloid compared to controls ([1]; 5 μM): significantly decreased
CCOC(=O)C1=C(C)NC(C)=C(C(=O)OCC)C1c1ccc(Cl)cc1 [BTB 14328, diethyl 4-(4-chlorophenyl)-2,6-dimethyl-1,4-dihydropyridine-3,5-dicarboxylate] | significantly decreased | significantly decreased | significantly decreased | –
CCOC(=O)C1=C(C)NC(C)=C(C(=O)OCC)C1c1ccc(-c2cc(C(F)(F)F)cc(C(F)(F)F)c2)o1 [CD 04170, diethyl 4-{5-[3,5-di(trifluoromethyl)phenyl]-2-furyl}-2,6-dimethyl-1,4-dihydro-pyridine-3,5-dicarboxylate] | significantly decreased | significantly decreased | significantly decreased | –
O=C1C=C(c2ccccc2)CN(C2CCCCC2)C1=O [HTS 01512, 1-cyclohexyl-5-phenyl-1,6-dihydro-2,3-pyridinedione] | significantly decreased | significantly decreased | significantly decreased | –
N#Cc1c(-c2cn(-c3ccccc3)nc2-c2ccccc2)cc(-c2ccccc2)[nH]c1=O [HTS 07578, 4-(1,3-diphenyl-1H-pyrazol-4-yl)-2-oxo-6-phenyl-1,2-dihydro-3-pyridinecarbonitrile] | significantly decreased | significantly decreased | significantly decreased | –
N#Cc1c(-c2cccs2)cc(-c2ccccc2)[nH]c1=O [HTS 10306, 2-oxo-6-phenyl-4-(2-thienyl)-1,2-dihydro-3-pyridinecarbonitrile] | significantly decreased | significantly decreased | significantly decreased | –
CCOC(=O)C1=C(C)NC(C)=C(C(=O)OCC)C1c1ccc(Br)cc1 [JFD 01209, diethyl 4-(4-bromophenyl)-2,6-dimethyl-1,4-dihydropyridine-3,5-dicarboxylate] | significantly decreased | significantly decreased | significantly decreased | –
CCOC(=O)C1=C(C)NC(C)=C(C(=O)OCC)C1c1ccc([N+](=O)[O-])cc1 [JFD 03266, diethyl 2,6-dimethyl-4-(4-nitrophenyl)-1,4-dihydropyridine-3,5-dicarboxylate] | significantly decreased | – | significantly decreased | –
CCOC(=O)C1=C(C)NC(C)=C(C(=O)OCC)C1c1cccc(Cl)c1 [JFD 03274, diethyl 4-(3-chlorophenyl)-2,6-dimethyl-1,4-dihydropyridine-3,5-dicarboxylate] | significantly decreased | – | significantly decreased | –
CCOC(=O)C1=C(C)NC(C)=C(C(=O)OCC)C1c1ccc(C)cc1 [JFD 03282, diethyl 2,6-dimethyl-4-(4-methylphenyl)-1,4-dihydropyridine-3,5-dicarboxylate] | significantly decreased | significantly decreased | significantly decreased | –
CC1=C(C#N)C(c2ccc(Cl)c(Cl)c2)C(C#N)=C(C)N1 [JFD 03292, 4-(3,4-dichlorophenyl)-2,6-dimethyl-1,4-dihydropyridine-3,5-dicarbonitrile] | significantly decreased | – | significantly decreased | –
COC(=O)C1=C(C)NC(C)=C(C(=O)OC)C1c1ccc(Cl)c(Cl)c1 [JFD 03293, dimethyl 4-(3,4-dichlorophenyl)-2,6-dimethyl-1,4-dihydropyridine-3,5-dicarboxylate] | significantly decreased | significantly decreased | significantly decreased | –
CCOC(=O)C1=C(C)NC(C)=C(C(=O)OCC)C1c1ccc(Cl)c(Cl)c1 [JFD 03294, diethyl 4-(3,4-dichlorophenyl)-2,6-dimethyl-1,4-dihydropyridine-3,5-dicarboxylate] | significantly decreased | significantly decreased | significantly decreased | –
CCOC(=O)C1=C(C)NC(C)=C(C(=O)OCC)C1c1ccccc1Cl [JFD 03305, diethyl 4-(2-chlorophenyl)-2,6-dimethyl-1,4-dihydropyridine-3,5-dicarboxylate] | significantly decreased | significantly decreased | significantly decreased | –
CCOC(=O)C1=C(C)NC(C)=C(C(=O)OCC)C1c1ccccc1[N+](=O)[O-] [JFD 03311, diethyl 2,6-dimethyl-4-(2-nitrophenyl)-1,4-dihydropyridine-3,5-dicarboxylate] | significantly decreased | – | significantly decreased | –
CCOC(=O)C1=C(C)NC(C)=C(C(=O)OCC)C1c1ccc(F)cc1 [JFD 03318, diethyl 4-(4-fluorophenyl)-2,6-dimethyl-1,4-dihydropyridine-3,5-dicarboxylate] | significantly decreased | significantly decreased | significantly decreased | –
O=C1CC(c2ccccc2)CC(=O)N1c1ccc(Oc2ccc(Cl)cc2)cc1 [PD 00463, 1-[4-(4-chlorophenoxy)phenyl]-4-phenyldihydropyridine-2,6(1H,3H)-dione] | significantly decreased | significantly decreased | significantly decreased | –
CCOC(=O)C1=C(C)NC(C)=C(C(=O)OCC)C1c1ccc(Cl)cc1Cl [RJC 03403, diethyl 4-(2,4-dichlorophenyl)-2,6-dimethyl-1,4-dihydro-3,5-pyridinedicarboxylate] | significantly decreased | significantly decreased | significantly decreased | –
CCOC(=O)C1=C(C)NC(C)=C(C(=O)OCC)C1c1ccc(-c2ccccc2C(F)(F)F)o1 [RJC 03405, diethyl 2,6-dimethyl-4-{5-[2-(trifluoromethyl)phenyl]-2-furyl}-1,4-dihydro-3,5-pyridinedicarboxylate] | significantly decreased | – | significantly decreased | –
CCOC(=O)C1=C(C)NC(C)=C(C(=O)OCC)C1c1ccc(OC)cc1Cl [RJC 03413, diethyl 4-(2-chloro-4-methoxyphenyl)-2,6-dimethyl-1,4-dihydro-3,5-pyridinedicarboxylate] | significantly decreased | – | significantly decreased | –
COC(=O)C1=C(C)NC(C)=C(C(=O)OC)C1c1ccc(Cl)cc1Cl [RJC 03423, dimethyl 4-(2,4-dichlorophenyl)-2,6-dimethyl-1,4-dihydro-3,5-pyridinedicarboxylate] | significantly decreased | significantly decreased | significantly decreased | –
COC(=O)C1=C(C)NC(C)=C(C(=O)OC)C1c1ccc(-c2ccsc2C(=O)OC)o1 [SEW 02070, dimethyl 4-{5-[2-(methoxycarbonyl)-3-thienyl]-2-furyl}-2,6-dimethyl-1,4-dihydropyridine-3,5-dicarboxylate] | significantly decreased | – | significantly decreased | –
CCOC(=O)C1=C(C)NC(C)=C(C(=O)OCC)C1c1cccc([N+](=O)[O-])c1 [XBX 00343, diethyl 2,6-dimethyl-4-(3-nitrophenyl)-1,4-dihydropyridine-3,5-dicarboxylate] | significantly decreased | – | significantly decreased | –
